Test results taken from US12396968B2, “Mitofusin activators having an endocyclic-bonded carbonyl group and methods for use thereof” (priority 2022, dated 2025).

How the values were obtained:
mitofusin = test: Dose-response of mitofusin agonist fusogenicity (mitochondrial aspect ratio) in Mfn1- or Mfn2-deficient MEFs; assay type: cell-based, mouse; conditions: Mfn1-KO or Mfn2-KO MEFs, compounds overnight, mitochondrial aspect ratio indexed to maximal response of Compound 35
Protocol: Dose-response of mitofusin agonist fusogenicity was performed in Mfn1- or Mfn2-deficient MEFs (Mfn1-KO or Mfn2-KO MEFs) cultured at 37° C. and 5% CO2-95% air. Cells were seeded on day 1 in 6 well plates at a density of 2×10^4 cells per well and compounds added at 9 concentrations (0.5 nM-10 μM dissolved in DMSO) overnight. Mitochondria were then stained with MitoTracker Orange (200 nM; M7510; Invitrogen, Carlsbad, CA, USA). Nuclei were stained with Hoescht (10 μg/ml; Invitrogen, Thermo Fisher Scientific Cat: #H3570). Images were acquired at room temperature on a Nikon Ti Confocal microscope using a 60×1.3 NA oil-immersion objective in Krebs-Henseleit buffer (138 NaCl, […] pH: 7.2-7.5, and 1 mM CaCl2). Laser excitation was 549 nm with emission at 590 nm for MitoTracker Orange and excitation at 306 nm with emission at 405 nm for Hoescht. Images were analyzed using ImageJ and fusogenicity quantified as mitochondrial aspect ratio (length/width), and were indexed to the maximal response elicited by Compound 35, a known mitofusin activator. Response curves were interpolated using the sigmoidal model using Prism 8 software. EC50 values are reported as mean with 95% confidence limits for at least 3 independent experiments.
(§1) Further testing details for the MFN activity and PAMPA are provided in U.S. Patent Applications 2020/0345668 and 2020/0345669, incorporated herein by reference above.

[1] = Plasma protein binding by equilibrium dialysis, human; assay type: in vitro ADME; conditions: read-out: Plasma Protein Binding (Bound %) Human (converted)
Protocol: (§2) In vitro pharmacokinetic analyses were performed in duplicate using standard methods by WuXi AppTec Co. Ltd. (Shanghai, China). Plasma protein binding was measured by equilibrium dialysis; % bound=(1−[free compound in dialysate]/[total compound in retentate])×100. Plasma stability of 2 uM compounds in clarified freeze-thawed plasma was assessed by LC-MS/MS of supernatants after protein precipitation; 120 min data are reported for studies including 0, 10, 30, 60, and 120 min. Liver microsome stability of 1 uM compounds in liver microsomes (0.5 mg/ml) after 0, 5, 10, 20, 30, 60 min. incubation was assessed by LC/MS/MS of reaction extracts.

[2] = Plasma protein binding by equilibrium dialysis, mouse; assay type: in vitro ADME; conditions: read-out: Plasma Protein Binding (Bound %) Mouse (converted)
Protocol: as §2

[3] = Liver microsome stability, human; assay type: in vitro ADME; conditions: human liver microsomes 0.5 mg/ml, 1 uM compound; read-out: Liver Microsomes (t1/2, minutes) Human
Protocol: as §2

[4] = Liver microsome stability, mouse; assay type: in vitro ADME; conditions: mouse liver microsomes 0.5 mg/ml, 1 uM compound; read-out: Liver Microsomes (t1/2, minutes) Mouse
Protocol: as §2

[5] = Passive artificial blood brain barrier membrane permeability assay (PAMPA-BBB); assay type: in vitro ADME; conditions: 10 μM compound, 1% porcine brain polar lipid extract/dodecane, room temperature
Protocol: Passive artificial blood brain barrier membrane permeability assay (PAMPA-BBB) were performed using 150 μL of 10 μM compounds (5% DMSO) added to PVDF membranes pre-coated with 5 μL of 1% brain polar lipid extract (Porcine)/dodecane mixture and incubated for 4 h at room temperature with shaking at 300 rpm. Donor and acceptor samples were analyzed by LC-MS/MS.
as §1

SMILES | EC50 (mitofusin) [nM] | fraction unbound [1] | fraction unbound [2] | half-life at 1 uM [3] [min] | half-life at 1 uM [4] [min] | Papp at 4 h, 10 μM [5] [×10⁻⁶ cm/s]
O=C(NC1CC1OCCCc1ccccc1)C1CCC(O)CC1 (centres unmarked) [Formula 34A] | 26.7 | 0.37 | 0.221 | > 145 | > 145 | 10.5
O=C(CCCCCCCc1ccccc1)N1CCC(O)CC1 [Formula 10] | 12.2 | 0.014 | 0.011 | 64.5 | 28 | 143
O=C(CCCCCCc1ccccc1)N1CCC(O)CC1 [Formula 7] | 30.5 | 0.049 | 0.043 | 103 | 52.5 | 145
O=C(N[C@H]1C[C@@H]1OCCc1ccccc1)[C@H]1CC[C@H](O)CC1 [Formula 32A] | 10.5 | 0.535 | 0.279 | > 145 | > 145 | 5.43
O=C(NC1CC(CCCc2ccccc2)C1)C1CCC(O)CC1 (centres unmarked) [Formula 31A] | 9 | 0.042 | 0.029 | 110 | 224 | 95.1

Results, then the molecule that gave them:

EC50 (mitofusin) [nM] | fraction unbound [1] | fraction unbound [2] | half-life at 1 uM [3] [min] | half-life at 1 uM [4] [min] | Papp at 4 h, 10 μM [5] [×10⁻⁶ cm/s] | SMILES
> 10000 | 0.034 | 0.041 | 60.6 | 22.5 | 180 | O=C(CCCCCCc1ccccc1)N1CCCC(O)C1 (centres unmarked) [Formula 8]
5.3 | – | – | – | – | 86.8 | O=C(NC1CC1CCCCc1ccccc1)C1CCC(O)CC1 (centres unmarked) [Formula 30A]
9.68 | 0.107 | 0.071 | > 145 | 102 | 30.2 | O=C(NCCCCCc1ccccc1)C1CCC(O)CC1 (centres unmarked) [Formula 26]
10.8 | 0.626 | 0.361 | > 145 | > 145 | 2.28 | O=C(NC1CC1OCc1ccccc1)C1CCC(O)CC1 (centres unmarked) [Formula 33A]
> 10000 | 0.163 | 0.088 | > 145 | 82.4 | 96.1 | O=C(CCCCCc1ccccc1)N1CCC(O)CC1 [Formula 9]
